The values below come from paper PMC9049331, “X-ray crystal structure of the Escherichia coli RadD DNA repair protein bound to ADP reveals a novel zinc ribbon domain” (PLoS ONE, 2022).

The assay addresses T1, RadD (Escherichia coli, UniProt P33919).
T1 construct: open reading frame of E. coli radD from plasmid pEAW724, no tag mentioned, expressed in E. coli STL2669 (DE3)
T1 sequence (P33919 1-586): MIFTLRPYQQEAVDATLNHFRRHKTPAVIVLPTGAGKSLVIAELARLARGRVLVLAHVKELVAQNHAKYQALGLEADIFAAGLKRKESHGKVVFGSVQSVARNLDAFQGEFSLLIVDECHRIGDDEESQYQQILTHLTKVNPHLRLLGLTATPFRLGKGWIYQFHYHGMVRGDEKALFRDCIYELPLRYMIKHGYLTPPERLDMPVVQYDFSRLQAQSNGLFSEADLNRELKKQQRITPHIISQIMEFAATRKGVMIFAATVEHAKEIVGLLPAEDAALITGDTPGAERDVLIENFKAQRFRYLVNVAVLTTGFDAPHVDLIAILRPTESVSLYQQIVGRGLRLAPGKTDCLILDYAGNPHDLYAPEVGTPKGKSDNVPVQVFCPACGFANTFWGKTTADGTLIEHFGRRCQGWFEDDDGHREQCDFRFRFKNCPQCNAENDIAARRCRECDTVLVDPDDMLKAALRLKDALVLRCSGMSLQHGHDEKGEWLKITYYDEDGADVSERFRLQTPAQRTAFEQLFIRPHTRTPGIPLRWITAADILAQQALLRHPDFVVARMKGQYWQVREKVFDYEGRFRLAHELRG
Kind of assay: X-ray crystal structure, […] A. Type of assay: binding. Particulars: crystallised with 1 mM ATPgammaS, ADP presumed from slow hydrolysis; Mg2+; pH 7.7; 4 C; ATPase site.

With `Nc1ncnc2c1ncn2[C@@H]1O[C@H](COP(=O)(O)OP(=O)(O)O)[C@@H](O)[C@H]1O` [ADP], the “X-ray crystal structure, 2.03 A” value is “ADP was modelled in the RadD active site”.
